From patent US20250339542A1, “CONVERSION OF A BIOLOGICALLY SILENT MIRNA BINDING SMALL MOLECULE TO AN MIRNA DEGRADER” (University of Florida Research Foundation, Incorporated, priority 2020, published 2025)
“And” between values parts separate entries of the source, which are not always exact repeats. Equal values may be shown once. “Also recorded” adds a separate entry of the source.

What was measured:
3×3 ILL = experiment: 2DCS with HiT-StARTS fitness ranking of bound RNA motifs; type: binding
Method: 2DCS: Primary Screening. The microarrays were constructed as previously described.^10 Microarrays were by coating glass plates with 25 mL of molten 1% agarose and allowing it to set for 2 h. After setting, the plates were pinned with compound using a Biomek® NX robotic pintool, pinning 100 nL of each compound. The array was dried in a fume hood overnight and then washed in 1× FB supplemented with 0.1% (v/v) Tween-20 and then Nano pure water two times each followed by air drying on the bench top. Once dried, 200 pmol of radiolabeled 3×3 ILL was added to 0.5 mL of 1× FB and folded by heating to 95° C. for 1 min and then cooling to room temperature slowly on the benchtop. Magnesium chloride was added after cooling. Once cooled the solution was brought to a volume of 2.5 mL with 1× FB. The microarrays were pre-hybridized with 1× HB for 5 min and the excess buffer was removed by touching the edge with a Kimwipe. The arrays were then Hybridized with the RNA for 30 min, spreading the solution evenly over the surface with parafilm. After hybridization, the array was washed four times with 1× HB followed by air drying and imaging by autoradiography. Hits were identified as signals with an intensity greater than 3-fold over background radiation on the array. Positive control compounds Mitoxantrone was present on all arrays.
2DCS: tRNA Counter Screen. To remove non-specific RNA binders hits identified above were subjected to competitive screening with cold yeast tRNA. The assay was carried out as previously described.^10 Briefly, arrays were constructed on Inkjet Superfrost microscope slides (Fisher) by applying 2 mL of molten 1% agarose onto each slide and curing them for 2 h. Once cured, 200 nL of each compound was spotted onto each plate and the plates dried overnight as previously described. After drying, the slides were washed three times for 5 min each with nano pure water and dried under a stream of compressed air. The slides were then pre-hybridized with 1× HB for 5 min, and then incubated with 100 pmol of folded hot RNA and tRNA (1× relative to the total moles of compound spotted) in 0.4 mL of 1× FB for 30 min. The slides were then washed with 1× HB five times, air dried, and imaged to identify library specific binders. […]
In these equations n1 is the observed reads for all selected RNAs in the RNA-seq data; n2 is the total reads observed for the starting library; p1 is the proportion of the reads for a particular sequence to the total reads in the selected library; p2 is the proportion of the reads for a particular sequence to the total reads of the starting library. We can then use Zobs to rank each sequence, and therefore each RNA motif, by its affinity or fitness which is calculated according to equation (5) below described previously:^10 […]

GC paired control = experiment: MST binding to GC paired control; settings: microscale thermophoresis
Method: (§1) Microscale thermophoresis study of binding. Binding constants were measured by MST using premium capillaries (Nanotemper) using serial dilations of compound from 50 μM to 1 nM in 1:2 dilutions. RNA-Cy5-155-A (20 nM) or Cy5-155-AU (20 nM), Cy5-155-C(20 nM), and Cy5-155-GC (20 nM) were annealed in 2×DNA buffer by heating at 70° C. with cooling to room temperature on the bench. Then the 2× compound and 2× RNA solutions were mixed together in a 1:1 ratio and allowed to equilibrate at room temperature for 10 min. Then, the capillaries were loaded and run on a […] under previously described conditions.^14 MST power was set to 40% and the LED power was set to 3%.

pre-miR-155 [1] = experiment: RT-qPCR of pre-miR-155 levels in MDA-MB-231 cells; type: cell-based, human; settings: MDA-MB-231 cells
Method: (§2) Tissue Culture. MDA-MB-231 cells were obtained from ATCC (HTB-26) and cultured in RPMI medium with […] & 25 mM HEPES (Corning) supplemented with 10% FBS (sigma). MCF-10a cells were obtained from ATCC(CRL-10317) and cultured in DMEM/F12 50/50 with glutamine and 15 mM HEPES(Corning) containing 20% FBS(Sigma), 1×Antibiotic-Antimycotic(Corning), 20 ng/mL of human epidermal growth factor(Pepro Tech Inc.), 100 μg/mL of insulin and […] of hydrocortisone (Pfizer &Bauer). HUVECs were cultured in EGM (Lonza) made using the EGM-2 bullet kit (Lonza) per the manufacturers protocol.
(§3) RT-qPCR analysis for Mature, Primary and Precursor miRNAs and mRNA levels. After compound treatment for the indicated time (MDA-MB-231 48 h and HUVECs 24 h), total RNA was extracted using the Zymo Quick-RNA mini prep kit according to the manufacturers protocol. Reverse Transcription (RT) for microRNAs and pri- and pre-miR-155 were done on 200 ng of RNA using the miScript II RT kit (Qiagen) according to the manufacturer's protocol. The mRNAs were done using QScript (Quanta Bio) on 200 ng of total RNA according to the manufacturer's protocol. RT-qPCR was done as mentioned above. The obtained data was analyzed by using the ΔΔCt method as described previously. For the washout experiment, MDA-MB-231 cells were treated with 3 for 48 h. Then the media was changed with fresh growth medium without compound and the cells incubated for 12, 24 and 36 h with RNA harvested and pre-miR-155 levels analyzed as described above.
(§4) RT-qPCR analysis for Mature, Primary and Precursor miRNAs and mRNA levels part. Relative RNA expression was determined by using ΔΔCt method with 18S rRNA as an internal control. Normalized fold change was calculated with the equation as below: […]

miR-155 [2] = experiment: RT-qPCR of mature miR-155 levels in MDA-MB-231 cells; type: cell-based, human; settings: 48 h
Method: as §2, §3, §4

base paired control RNA = experiment: MST binding to base paired control RNA (A bulge mutated to AU pair); settings: microscale thermophoresis
Method: as §1

[3] = system: pre-miR-155's C-bulge (5′UCG/3′A_U); experiment: MST binding to pre-miR-155 C bulge; design: species or system human; settings: microscale thermophoresis
Method: as §1

[4] = molecular target: pre-miR-155's 5′GAU/3′C_A bulge; experiment: Microscale thermophoresis (MST) binding to pre-miR-155 A bulge; design: species or system human
Method: as §1

pre-miR-155 [5] = experiment: In vitro RNase L cleavage assay of pre-miR-155; type: biochemical, human
Method: pre-miR-155 was then incubated with compound 3 in vitro in an RNase L cleavage assay.
PCR amplification and transcription of DNA templates. PCR amplification of DNA templates of pre-miR-155 and mutants were performed using the pre-miR-155 forward primer containing T7 RNA polymerase promoter and a reverse primer common to both the pre-miR-155 Wild type and Mutant templates. The sequence of Oligonucleotides used in this study can be found in Table 4. PCR amplification was carried out in 350 μL of 1× PCR buffer (10 mM Tris-HCl, pH 9.0, 50 mM KCl, and 0.1% (v/v) Triton X-100), 0.33 mM dNTPs, 4.25 mM MgCl2, 2 μM of each primer(100 μM), and 1.7 μL of Taq DNA polymerase. Thermocycling was done for 35 cycles at 95° C. for 30 s, 55° C. for 30 s, and 72° C. for 60 s. PCR products were confirmed by a 2.5% Agarose Gel stained with ethidium bromide before in vitro transcription. In vitro RNA transcription for the target RNAs were carried out using house made reagents as described previously.^11

miR-155 [6] = experiment: RT-qPCR of miR-155 levels in HUVECs; type: cell-based, human
Method: as §2, §3

pre-miR-155 [7] = experiment: RT-qPCR of pre-miR-155 levels in HUVECs; type: cell-based, human
Method: as §2, §3

pre-miR-155 [8] = experiment: Chem-CLIP and competitive Chem-CLIP of pre-miR-155 in MDA-MB-231 cells; type: cell-based, human; settings: for enrichment of pre-miR-155 in pulled down fractions (Chem-CLIP): 1×10^−7 M (100 nM)
Method: Cellular Chem-CLIP and Competitive-Chem-CLIP of pre-miR-155. MDA-MB-231 cells at 80% confluency in 100 mm dish were treated with Chem-CLIP probe at the indicated concentration overnight. Then cells were washed with DPBS and harvested by scrapping. Total RNA was extracted by using the miRNeasy mini kit (Qiagen) according to the manufacture's protocol. Then, 50 g of total RNA was treated to 150 L of Dynabeads MyOne Streptavidin C1 (Invitrogen) slurry in 500 L of 1×DNA buffer (8.0 mM Na2PO4, 185 mM NaCl, pH=7.0) and shaked for 6 h. The beads then captured on a Magnetic rack and washed with DPBS for 4 times. The bound RNA was then cleaved from beads in 150 μL of 95% formamide with 10 mM EDTA at 95° C. for 30 min. Released RNA was then cleaned up by Zymo Quick-RNA MiniPrep kit per the manufacture's protocol. RT-qPCR was carried out on pre-miR-155 as previously described above by using 10 ng of input cDNA from before and after pulldown RNA samples. Enrichment of pre-miR-155 was calculated as previously reported^15. Competitive Chem-CLIP was completed by pre-treating MDA-MB-231 cells with compound B for 2 h followed by dosing of Chem-CLIP at 100 nM overnight. Sample preparation and data analysis were performed as for Chem-CLIP.

## Cc1cc(C)c(-n2c[n+](-c3c(C)cc(C)cc3C)c3c2C[C@@]2(C)[C@@H](CC[C@@H]4[C@@H]2CC[C@]2(C)[C@@H]([C@H](C)CCCC(C)C)CC[C@@H]42)C3)c(C)c1 [Compound C11]
3×3 ILL
  Fitness Score of the next motif: 56%
  fitness score of highest affinity interaction, alternating (AU)(UA) pairs: 100%

## CCCNC(=O)CCc1c(C)n(-c2c(C(C)C)cccc2C(C)C)c[n+]1-c1c(C(C)C)cccc1C(C)C [Compound 2]
GC paired control
  binding to GC paired control: Neither compound (1 or 2) had any affinity
pre-miR-155 [1]
  effect on pre-miR-155 levels: no effect
miR-155 [2]
  effect on miR-155 levels / miR-155 biogenesis: no effect
Base paired control RNA
  binding to base paired control RNA: no affinity; also recorded: ablated binding; also recorded: Neither molecule showed significant binding
[3]
  binding to C bulge: Neither compound (1 or 2) had any affinity; also recorded: Neither molecule showed significant binding
[4]
  Kd: 552 ± 120 nM

## CCOC(=O)C1=C(Nc2ccccc2)S/C(=C\c2ccc(OCCOCCOCCOCCNC(C)=O)c(O)c2)C1=O [Compound 4]
miR-155 [2]
  effect on miR-155 levels / miR-155 biogenesis: no effect; also recorded: does not affect
pre-miR-155 [5]
  cleavage of pre-miR-155: no significant cleavage; also recorded: unable to cleave

## CCCCCCCCCCCc1c(CCCCCCCCCCC)[n+](-c2c(C(C)C)cccc2C(C)C)cn1-c1c(C(C)C)cccc1C(C)C [Compound 1]
GC paired control
  binding to GC paired control: Neither compound (1 or 2) had any affinity
pre-miR-155 [1]; co-treated with 3 at 1×10^−7 M, mature, pre- and pri-miR-155
  concentration of 1 giving complete ablation of cleavage by 3: 1000 nM
miR-155 [6]
  effect on miR-155 levels: no effect
miR-155 [2]
  effect on miR-155 levels / miR-155 biogenesis: no effect; also recorded: unable to inhibit
Base paired control RNA
  binding to base paired control RNA: no binding; also recorded: Neither molecule showed significant binding
[3]
  binding to C bulge: Neither compound (1 or 2) had any affinity; also recorded: Neither molecule showed significant binding
[4]
  Kd: 490 ± 122 nM
pre-miR-155 [7]
  effect on pre-miR-155 levels: no effect
pre-miR-155 [7]; 3 at 1×10^−8 M, 1 at 1×10^−7 and 1×10^−6 M
  competition of cleavage by 3: dose dependently reduced cleavage
pre-miR-155 [8]; Homo sapiens, 6 held constant at 1×10^−7 M, read-out: IC50 of reduction of pre-miR-155 enrichment (C-Chem-CLIP)
  IC50: 100 nM

## CCCCCCCCCCCc1c(CCCCCCCCCCC)[n+](C)c(CCCO)n1C [Compound C7]
3×3 ILL
  Fitness Score of the next motif: 46%
  fitness score of highest affinity interaction, alternating (AU)(UA) pairs: 100%

## CC(=O)NCCCC[C@H](NC(=O)CCCc1ccc(N(CCCl)CCCl)cc1)C(=O)NCCNC(=O)CCCCC1SCC2NC(=O)NC21 (stereo partly drawn) [Compound 7]
pre-miR-155 [8]
  enrichment of pre-miR-155 in pulled down fractions (Chem-CLIP): no enrichment; also recorded: unable to pull down

## Cc1c(CCC(=O)NCCCC[C@H](NC(=O)CCCc2ccc(N(CCCl)CCCl)cc2)C(=O)NCCNC(=O)CCCCC2SCC3NC(=O)NC32)[n+](-c2c(C(C)C)cccc2C(C)C)cn1-c1c(C(C)C)cccc1C(C)C (stereo partly drawn) [Compound 6]
pre-miR-155 [8]
  enrichment of pre-miR-155 in pulled down fractions (Chem-CLIP): 4 fold and 7 fold
